One molecule from US20190358242A1, “COMPOSITIONS, KITS, AND METHODS TO INDUCE ACQUIRED CYTORESISTANCE USING STRESS PROTEIN INDUCERS” (FRED HUTCHINSON CANCER RESEARCH CENTER, priority 2017, published 2019) can be followed below.

Each structure is given as a SMILES string. Several values for one entry are separate records, joined by “and”; a condition that tells them apart may be missing. Equal entries are not always repeated.

Assay type in all cases: in vivo, CD-1 mice
Assay [1] deals with IL-10 protein. As to the kind of experiment: Kidney IL-10 protein (ELISA). Here is the method:
(§1) Thirty-two mice were divided into 4 equal groups: (1) control mice; (2) mice treated with 1 mg of N-Mgb injection (as a bolus through the tail vein); (3) mice treated with […] of SnPP (via tail vein); and (4) mice treated with combined N-Mgb 1 SnPP. After either 4 hours (n=16) or 18 hours (n=16), the mice were deeply anesthetized with pentobarbital (50 mg/kg), the abdomen was opened through a midline abdominal incision, and the kidneys were removed. To determine potential effects on extrarenal organs, a liver lobe and the heart were also removed. The tissues were iced and then extracted for protein and RNA (RNeasy Plus Mini; Qiagen, Valencia, Calif.) and subjected to enzyme linked immunosorbent assay (ELISA) and reverse transcriptase polymerase chain reaction (RT-PCR) for HO-1, haptoglobin, and IL-10 protein and messenger RNAs (mRNAs). Zager et al. J Am Soc Nephrol 2014; 25:998-1012; Zager et al. Am J Physiol 2012; 303:F139-48. As an assessment of renal function, control mice and the 18 hour after N-Mgb+SnPP-treated mice had blood urea nitrogen (BUN) and plasma creatinine levels measured. Additionally, transverse 10% formalin fixed kidney sections ([…]) were cut and stained with hematoxylin and eosin (H&E) and periodic acid Schiff (PAS) to further assess potential injury.
For orientation: An ELISA detects its analyte on a solid surface through an enzyme-linked reagent.

In assay [2] the test system is HO-1 protein. As to the kind of experiment: Renal cortex HO-1 protein (ELISA) after IV myoglobin, SnPP or both. The following applies: 4 hr IV; 1 mg myoglobin, 1 μmole SnPP. The source says:
(§2) The Glycerol Model of AKI. This is a widely used model of rhabdomyolysis-induced AKI that has been employed worldwide for 50 years. The model was used to test whether prophylactic interventions confer protection against AKI. Basically, the protocol is as follows: Male CD-1 mice (35-45 grams), obtained from Charles River Laboratories, Wilmington, Mass. were studied. Mice were maintained under standard vivarium conditions and generally housed for 1-3 weeks prior to study. The mice were placed in a cylindrical restraining cage, and then were given a tail vein injection of the test substances (see below) or test substance vehicle. The mice were then returned to their cages. Eighteen hours (hrs) later, the mice were briefly anesthetized by isoflurane inhalation, and given an intramuscular injection of hypertonic (50%) glycerol in a dose of 9 ml/Kg body weight. The dose is divided in two, with half injected into the muscle of each of the hind limbs. The mice were then returned to their cages. Eighteen hrs later, the mice were deeply anesthetized with pentobarbital (50-100 mg/Kg), the abdominal cavity was opened through a midline abdominal incision, a blood sample was obtained from the abdominal vena cava and the kidneys were resected. A kidney cross section was obtained and fixed in formalin for subsequent histologic analysis. The terminal blood samples were analyzed for BUN and creatinine, using commercially available assay kits. The remaining kidney tissue was subjected to cortical dissection, and the cortical tissues were then extracted for protein and RNA. The protein samples were saved for analysis of HO-1 levels, and the RNA samples were subjected to RT-PCR to quantify HO-1 mRNA as well as levels of other stress gene mRNAs (e.g. NGAL, haptoglobin, hemopexin, hepicidin).
(§3) Myoglobin+SnPP: To 5 mg of dry myoglobin was added 0.9 ml of PBS+0.1 ml of a stock SnPP solution (50 umole/ml). The resulting final concentrations were 5 mg/ml myoglobin+5 umoles/ml of SnPP. The tail vein was injected with 200 ul of this solution, which equals 1 mg myoglobin+1 umole SnPP. […]
Four hr post myoglobin vs myoglobin+SnPP vs SnPP alone experiments. To confirm that the myoglobin+SnPP has a synergistic effect in inducing HO-1 mRNA and HO-1 protein levels, each of the above combinations have been administered alone via tail vein injection. Four hrs later, the mice were sacrificed as noted above and the kidneys were harvested for assessment of HO-1 mRNA and protein levels. For additional information regarding methods, see Zager et al., Am J Physiol Renal Physiol. 2014 Jul. 30. Pii.
Given that it is just 4 hrs post injection, the mRNA increases are greater than the protein increases as protein synthesis must follow the mRNA induction-requiring more time.

Assay [3] has as its system HO-1 protein. Description: Liver HO-1 protein (ELISA). Also noted: unit not given beside the values. Here is the method: as §1
Another assay has as its system HO-1 mRNA. As to the kind of experiment: Renal HO-1 mRNA (RT-PCR, HO-1/GAPDH) after IV myoglobin, SnPP or both. The following applies: kidney, 4 hr post IV injection.
Excerpt: as §2, §3
[…] To confirm that the myoglobin+SnPP has a synergistic effect in inducing HO-1 mRNA and HO-1 protein levels, each of the above combinations have been administered alone via tail vein injection. […] For additional information regarding methods, see Zager et al., Am J Physiol Renal Physiol. 2014 Jul. 30. Pii.

The subject of the next assay is haptoglobin mRNA. Description: Kidney haptoglobin mRNA (RT-PCR). Here is the method:
as §1

Assay [4] concerns IL-10 protein. As to the kind of experiment: Liver IL-10 protein (ELISA). As for the experimental part: as §1
Assay [5] has as its system glycerol model of rhabdomyolysis-induced AKI. Description: Glycerol model of rhabdomyolysis-induced AKI. The following applies: IV pretreatment 18 h before glycerol; 18 hours after glycerol. Here is the method:
Assessments of cytoresistance. Glycerol model of rhabdomyolysis-induced AKI. Twenty mice were divided into 4 equal groups (controls, mice treated with N-Mgb, SnPP, and mice treated with N-Mgb+SnPP tail vein injections) as described previously. 18 hours later, the mice were briefly anesthetized with isoflurane and immediately injected with 9 mL/kg of 50% glycerol, administered in equally divided doses into each hind limb. At 18 hours after glycerol injection, the mice were anesthetized with pentobarbital, the abdomen was opened, a blood sample for BUN and creatinine assessments was obtained from the vena cava, and the kidneys were resected. The control post-glycerol group and the N-Mgb+SnPP-pretreated glycerol group had kidney sections stained with H&E.
To assess whether the previously determined plasma and kidney HO-1 and haptoglobin levels correlated with degrees of cytoresistance, additional mice were injected with 0, 2.5, or 5 mg of N-Mgb […] of SnPP (n=3 mice per group). Eighteen hours later, all mice were subjected to the glycerol AKI model as described previously. Severities of AKI were determined 18 hours after glycerol injection by BUN and plasma creatinine analyses.
Calculations and statistics. All values are given as the mean […] standard error of the mean. Statistical comparisons were made by unpaired Student's t test. […]

[6] abbreviates: 4 h after IV injection, N-Mgb 1 mg, SnPP 1 mmol [sic].

As for `C=Cc1c2[n-]c(c1C)/C=c1\[n-]/c(c(C)c1C=C)=C\c1[n-]c(c(CCC(=O)O)c1C)/C=c1\[n-]c(c(C)c1CCC(=O)O)=C2.[Sn+4]` [SnPP, tin protoporphyrin], the “Kidney IL-10 protein” value in the assay with IL-10 protein [1] (setting [6]) is given as 550 ± 86. For the same molecule, the “Kidney protein IL-10” value in the assay with IL-10 protein [1] (18 h after IV injection) is 454 ± 51. Further, the “Renal IL-10 protein increase, in words” value with IL-10 protein [1] (18 hours, agent alone) is “absence of IL-10 protein increases”. Further, in the assay on HO-1 protein [2], the “Cortex HO-1 protein (ELISA), Average” value is listed as 34.4 ng HO-1/mg protein. For the same molecule, the “Cortex HO-1 protein (ELISA), individual mice” value in the assay with HO-1 protein [2] is 31.5 ng HO-1/mg protein and 20.5 ng HO-1/mg protein and 53.6 ng HO-1/mg protein and 32.2 ng HO-1/mg protein. The “Liver protein HO-1” value was 7.4 ± 0.7 in the assay on HO-1 protein [3] (4 h after IV injection) and 18 ± 2.5 in the assay on HO-1 protein [3] (18 h after IV injection). Besides, the “HO-1/GAPDH mRNA, Average” value in the assay on HO-1 mRNA came out at 6.94. Also, the “HO-1/GAPDH mRNA, individual mice” value in the assay with HO-1 mRNA was 9.72 and 8.25 and 6.95 and 2.85. Moreover, the “Kidney mRNA Haptoglobin” value in the assay on haptoglobin mRNA (setting [6]) came to 0.19 ± 0.01. Besides, the “Kidney mRNA cortex Haptoglobin” value with haptoglobin mRNA (18 h after IV injection) was determined as 0.23 ± 0.08. Moreover, the “Liver protein IL-10” value is on record as 485 ± 47 with IL-10 protein [4] (4 h after IV injection) and 8198 ± 725 with IL-10 protein [4] (18 h after IV injection). Further, the “Protection against glycerol-induced AKI judged by BUN/creatinine levels” value in assay [5] was “virtually no effect”.
